One experiment concerns the target CSF1R (Homo sapiens, UniProt P07333). In words: HEK293 CSF1R phosphorylation MSD assay. Type of experiment: cell-based. Details: expressed in transfected cells; host or cells: HEK293. The conditions noted are these: read-out: HEK293 pCSF1R M-CSF MSD:IC50. An outline of the steps:
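HEK293 cells expressing CSF1R-FKBP were pretreated 2 h at 37° C with 9 half-log concentrations of compound (0.5% DMSO final), then stimulated 5 min with 50 ng/mL human M-CSF. Lysates captured on biotin-FK506 plates; phosphotyrosine detected by MSD electrochemiluminescence. IC50 versus DMSO, averaged from duplicate plates.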

The next experiment concerns the target T1, FLT3 (Homo sapiens, UniProt P36888).
T1 construct: made in house
T1 sequence (P36888 27-993): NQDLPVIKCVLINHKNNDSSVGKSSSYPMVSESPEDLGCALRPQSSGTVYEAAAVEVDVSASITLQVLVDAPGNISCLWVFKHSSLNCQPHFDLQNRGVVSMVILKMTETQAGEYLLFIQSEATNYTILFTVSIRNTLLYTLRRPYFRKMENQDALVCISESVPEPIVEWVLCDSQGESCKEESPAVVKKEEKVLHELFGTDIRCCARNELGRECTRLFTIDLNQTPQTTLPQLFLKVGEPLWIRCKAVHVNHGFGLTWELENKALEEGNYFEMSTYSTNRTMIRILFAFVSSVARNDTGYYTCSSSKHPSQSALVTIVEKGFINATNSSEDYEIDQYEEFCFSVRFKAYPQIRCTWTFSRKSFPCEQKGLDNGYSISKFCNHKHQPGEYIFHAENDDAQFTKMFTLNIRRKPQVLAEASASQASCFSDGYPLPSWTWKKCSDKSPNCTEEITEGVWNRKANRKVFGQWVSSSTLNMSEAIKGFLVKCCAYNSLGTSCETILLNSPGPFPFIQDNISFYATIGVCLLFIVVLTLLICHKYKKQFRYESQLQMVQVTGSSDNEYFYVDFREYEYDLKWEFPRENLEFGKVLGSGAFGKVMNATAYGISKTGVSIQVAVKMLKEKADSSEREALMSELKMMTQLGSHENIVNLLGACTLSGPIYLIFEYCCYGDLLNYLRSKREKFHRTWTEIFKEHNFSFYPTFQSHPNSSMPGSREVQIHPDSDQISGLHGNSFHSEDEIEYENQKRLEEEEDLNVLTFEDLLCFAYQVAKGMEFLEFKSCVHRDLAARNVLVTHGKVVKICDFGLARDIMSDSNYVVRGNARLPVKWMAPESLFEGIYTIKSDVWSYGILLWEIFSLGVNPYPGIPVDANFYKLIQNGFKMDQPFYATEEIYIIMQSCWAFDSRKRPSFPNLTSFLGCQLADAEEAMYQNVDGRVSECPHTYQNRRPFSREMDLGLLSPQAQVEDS
As to the kind of experiment: Competition binding assay, FLT3 Kd. An outline of the steps: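 Read-out is quantitative PCR of kinase recovered from affinity beads after competition with test compound. Binding reached equilibrium over 1 hour at room temperature; Kd values come from eleven-point threefold serial dilutions.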

Where [1] appears, read: HEK293 cells, M-CSF stimulated CSF1R phosphorylation, MSD.
Setting [2] is: 2 h compound, human M-CSF 50 ng/mL for 5 min.

Counter-ions that a name gives are not always drawn. Like-named read-outs stand apart in the source and are kept apart here.

CSF1R, sequence (P07333 20-972): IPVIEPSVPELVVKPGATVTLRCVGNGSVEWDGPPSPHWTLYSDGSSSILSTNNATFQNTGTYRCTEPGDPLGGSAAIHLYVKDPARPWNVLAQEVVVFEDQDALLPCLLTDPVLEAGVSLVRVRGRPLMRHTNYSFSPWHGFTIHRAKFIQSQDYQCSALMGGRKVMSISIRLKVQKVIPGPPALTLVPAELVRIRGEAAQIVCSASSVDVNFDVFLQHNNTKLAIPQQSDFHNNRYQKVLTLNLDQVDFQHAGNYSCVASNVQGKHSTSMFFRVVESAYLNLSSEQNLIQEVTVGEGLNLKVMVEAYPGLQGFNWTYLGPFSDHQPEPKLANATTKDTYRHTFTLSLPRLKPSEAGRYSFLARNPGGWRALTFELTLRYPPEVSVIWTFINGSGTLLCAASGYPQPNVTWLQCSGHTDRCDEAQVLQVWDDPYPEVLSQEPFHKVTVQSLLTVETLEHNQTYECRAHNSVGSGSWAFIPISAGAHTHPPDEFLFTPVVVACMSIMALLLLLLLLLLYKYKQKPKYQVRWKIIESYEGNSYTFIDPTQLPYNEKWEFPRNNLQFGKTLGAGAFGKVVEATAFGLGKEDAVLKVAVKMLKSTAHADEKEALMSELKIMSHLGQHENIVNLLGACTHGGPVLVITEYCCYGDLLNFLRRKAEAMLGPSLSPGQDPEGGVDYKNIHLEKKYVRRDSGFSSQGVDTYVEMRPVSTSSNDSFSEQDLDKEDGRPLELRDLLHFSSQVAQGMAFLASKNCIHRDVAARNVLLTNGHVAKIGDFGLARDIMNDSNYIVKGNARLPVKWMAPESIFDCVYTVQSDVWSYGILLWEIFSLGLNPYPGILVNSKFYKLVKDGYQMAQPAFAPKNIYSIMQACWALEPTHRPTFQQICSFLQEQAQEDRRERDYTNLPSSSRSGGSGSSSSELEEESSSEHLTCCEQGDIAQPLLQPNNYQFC

In general, IC50 refers to the midpoint of a concentration-inhibition curve. As a reminder, the Kd is a measure of binding affinity in units of concentration. Consider `O[C@@H]1CCCC[C@H]1Nc1nc2ccc(Cn3cnc4cc(C(F)(F)F)cnc43)cc2s1` [Example 212, (1R,2R)-2-((6-((6-(trifluoromethyl)-3H-imidazo[4,5-b]pyridin-3-yl)methyl)benzo[d]thiazol-2-yl)amino)cyclohexanol], for which the IC50 at CSF1R (setting [1]) was 50 to 200 nM. On FLT3 (competition binding), the Kd was in the range of 200 to 1000 nM.

With `O[C@@H]1CCCC[C@H]1Nc1nc2ccc(Cc3cnc4cc(-n5ccnc5)ccn34)cc2s1` [Example 214, (1R,2R)-2-((6-((7-(1H-imidazol-1-yl)imidazo[1,2-a]pyridin-3-yl)methyl)benzo[d]thiazol-2-yl)amino)cyclohexanol], the half-maximal inhibitory concentration (IC50) at CSF1R (setting [1]) was at most 50 nM. This compound also registered a dissociation constant Kd on FLT3 (competition binding) above 5000 nM.

With `O[C@@H]1CCCC[C@H]1Nc1nc2ccc(Cc3cnc4cc(-n5nccn5)ccn34)cc2s1` [Example 215, (1R,2R)-2-((6-((7-(2H-1,2,3-triazol-2-yl)imidazo[1,2-a]pyridin-3-yl)methyl)benzo[d]thiazol-2-yl)amino)cyclohexanol], the 50% inhibitory concentration (IC50) on CSF1R (setting [1]) is 50 to 200 nM. The compound also gave a Kd on FLT3 (competition binding) of 1000 to 5000 nM.

For `C=Cc1ccn2c(Cc3ccc4nc(N[C@@H]5CCCC[C@H]5O)sc4c3)cnc2c1` [Example 216, (1R,2R)-2-((6-((7-vinylimidazo[1,2-a]pyridin-3-yl)methyl)benzo[d]thiazol-2-yl)amino)cyclohexanol], the IC50 at CSF1R (setting [1]) fell in the range of 50 to 200 nM. Besides, the dissociation constant Kd on FLT3 (competition binding) was in the range of 1000 to 5000 nM.

`C=CCOc1ccn2c(Cc3ccc4nc(N[C@@H]5CCCC[C@H]5O)sc4c3)cnc2c1` [Example 217, (1R,2R)-2-((6-((7-(allyloxy)imidazo[1,2-a]pyridin-3-yl)methyl)benzo[d]thiazol-2-yl)amino)cyclohexanol]: the IC50 on CSF1R (setting [1]) was 50 to 200 nM. In addition, the Kd at FLT3 (competition binding) was 1000 to 5000 nM.

`O[C@@H]1CCCC[C@H]1Nc1nc2ccc(Cc3cnc4cc(-n5ccnn5)ccn34)cc2s1` [Example 218, (1R,2R)-2-((6-((7-(1H-1,2,3-triazol-1-yl)imidazo[1,2-a]pyridin-3-yl)methyl)benzo[d]thiazol-2-yl)amino)cyclohexanol]: the concentration for half-maximal inhibition (IC50) on CSF1R (setting [1]) was at most 50 nM. The compound also came in with a Kd on FLT3 (competition binding) of 1000 to 5000 nM.

In the case of `Fc1cnc2c(c1)ncn2Cc1ccc2nc(N[C@@H]3CCCC[C@@H]3Cl)sc2c1` [Example 219, N-((1R,2S)-2-chlorocyclohexyl)-6-((6-fluoro-3H-imidazo[4,5-b]pyridin-3-yl)methyl)benzo[d]thiazol-2-amine], at CSF1R (setting [1]), the IC50 was in the range of 50 to 200 nM. The Kd on FLT3 (competition binding) fell in the range of 1000 to 5000 nM.

Regarding `Nc1nccn(Cc2ccc3nc(N[C@@H]4CCCC[C@H]4O)sc3c2)c1=O` [Example 220, 3-amino-1-((2-(((1R,2R)-2-hydroxycyclohexyl)amino)benzo[d]thiazol-6-yl)methyl)pyrazin-2(1H)-one acetate salt], the IC50 on CSF1R (setting [1]) is above 500 nM. Moreover, the Kd on FLT3 (competition binding) is above 5000 nM.

In the case of “either (1R,2R)-1-((6-((4-(1-methyl-1H-pyrazol-4-yl)-1H-imidazol-1-yl)methyl)benzo[d]thiazol-2-yl)amino)-2,3-dihydro-1H-inden-2-ol or (1R,2R)-1-((6-((5-(1-methyl-1H-pyrazol-4-yl)-1H-imidazol-1-yl)methyl)benzo[d]thiazol-2-yl)amino)-2,3-dihydro-1H-inden-2-ol [Example 83]”, on CSF1R (setting [2]), the IC50 is 50 to 200 nM. Also, the Kd on FLT3 was at most 200 nM.

“either (1R,2R)-2-((6-((3H-imidazo[4,5-b]pyridin-3-yl)methyl)benzo[d]thiazol-2-yl)amino)-1-methylcyclohexanol or (1S,2R)-2-((6-((3H-imidazo[4,5-b]pyridin-3-yl)methyl)benzo[d]thiazol-2-yl)amino)-1-methylcyclohexanol [Example 60]”: at CSF1R (setting [2]), the IC50 is 50 to 200 nM. The same compound returned a Kd on FLT3 of 1000 to 5000 nM.

Regarding “either (1S,2R)-2-((6-((3H-imidazo[4,5-b]pyridin-3-yl)methyl)benzo[d]thiazol-2-yl)amino)-1-methylcyclohexanol or (1R,2R)-2-((6-((3H-imidazo[4,5-b]pyridin-3-yl)methyl)benzo[d]thiazol-2-yl)amino)-1-methylcyclohexanol [Example 59]”, the IC50 at CSF1R (setting [2]) is 50 to 200 nM. The same compound registered a dissociation constant (Kd) at FLT3 of 1000 to 5000 nM.

The values above are taken from US9938261B2, “Heterocyclic compounds and methods of use thereof” (AMBIT BIOSCIENCES CORPORATION, priority 2011, dated 2018).
